Source: patent US20090304720A1, “Active Agent-Loaded Nanoparticles Based On Hydrophilic Proteins” (LTS Lohmann Therapie-Systeme AG, priority 2006, published 2009)

System: mice
Test: tail-flick test, analgesia (nociceptive response) after intravenous injection
Format: in vivo, mouse
Settings: 7.0 mg/kg loperamide, cut-off ten seconds = 100% MPE
Experimental: The preparations were applied intravenously to mice, at a dosage of 7.0 mg/kg loperamide. Based on an average body weight of a mouse of 20 g, the animals received an application amount of 200 μl of the above-mentioned preparation.
With the aid of this system, the analgesic effects shown in FIG. 1 were achieved after intravenous injection using the above-mentioned active agent loperamide. Analgesia (Nociceptive Response) was detected by the tail-flick test, wherein a hot beam of light is projected onto the tail of the mouse and the time that passes until the mouse flicks away its tail is measured. After ten seconds (=100% MPE) the experiment is discontinued so as not to cause injury to the mouse. Negative MPE values occur in those cases where following administration of the preparation, the mouse flicks away its tail earlier than before the treatment.
As a comparison, a loperamide solution 0.7 mg/ml in 2.6%-vol. ethanol was used.

CN(C)C(=O)C(CCN1CCC(O)(c2ccc(Cl)cc2)CC1)(c1ccccc1)c1ccccc1 [loperamide]
analgesic effect (maximal possible effect, MPE): no analgesic effect
